What was measured:
interleukin 6 (IL-6) = settings: RAW264.7 cells, compound 8 μg/mL 1 hour, then LPS 1 μg/mL 24 hours; relative to LPS without compound
Method: The anti-inflammatory effects of the compounds of the present invention were evaluated using RAW264.7 cells which were stimulated to secrete interleukin 6 (IL-6). Specifically, RAW264.7 cells (obtained from Korean Cell Line Bank), mouse macrophages, were inoculated into a 12-well plate at 5×10^5 cells/well and incubated at 37° C. for 16 to 24 hours. The compounds of the present invention were added to the cell culture medium containing RAW264.7 cells incubated as above at a final concentration of 0 or 8 μg/ ? , and then incubated at 37° C. for 1 hour. Next, lipopolysaccharide (LPS, Sigma-Aldrich, USA) was further added to the medium at a final concentration of 1 μg/ ? , and the medium was incubated at 37° C. for 24 hours to induce IL-6 expression. Thereafter, IL-6 levels produced by the RAW264.7 cells were measured using an ELISA kit (Komabiotech Inc. Korea) according to the manufacturer's instructions. In Table 9, IL6 levels were expressed as a relative percentage (%) between LPS-induced IL6 levels after the treatment with the compound of the present invention and LPS-induced IL6 levels without the treatment of the compound of the present invention.

C. neoformans = settings: RPMI1640 broth, 35° C., 72 hours, visual reading; expressed as a range value
Method: An in vitro antifungal susceptibility test was performed in accordance with the US Clinical and Laboratory Standards Institute (CLSI) guidelines to measure the degree of antifungal activity of the compounds synthesized in the Preparation Examples against opportunistic pathogenic fungi. […] The MIC value (μg/ ? ) is expressed as a range value. Specifically, Candida species and Cryptococcus neoformans were incubated in a Sabouraud dextrose agar (SDA) (Sigma-Aldrich) solid medium for 24 and 48 hours, respectively to obtain single colonies. The obtained single colonies were suspended in 0.85% physiological saline to prepare fungal cell suspension (1 to 5×10^6 cells/ ? ). Fungal cells 2000-fold diluted in RPMI1640 broth (Sigma-Aldrich) were seeded on 96-well plates (5×10^2 to 2.5×10^3 cells/ ? , 195 ? /well). Serial two-fold dilutions (128, 64, 32, 16, 8, 4, 2, 1, and 0.5 μg/ ? ) of compounds were prepared by diluting the compounds synthesized according to the above preparation examples. Then, 5 ? from each dilution was added to the well of the 96-well plate containing fungal cell suspension to give a final suspension of 200 ? per well. […] As a positive control, amphotericin B (AMB), which is highly toxic to the human body but is known as a representative antifungal agent, was used.

C. albicans = settings: RPMI1640 broth, 35° C., 48 hours, visual reading; expressed as a range value
C. glabrata = settings: RPMI1640 broth, 35° C., 48 hours, visual reading; expressed as a range value
A. fumigatus = settings: visual reading; expressed as a range value
B. cereus (+) = assay: Antibacterial MIC test (CLSI); type: cell-based; settings: MHB liquid medium, 37° C., 24 hours
Method: (§1) The MIC test was conducted in accordance CLSI guidelines. […] As a positive control, Nofloxacin and Vancomycin were used.

B. coagulans (+) = assay: Antibacterial MIC test (CLSI); type: cell-based; settings: MHB liquid medium, 37° C., 24 hours
Method: as §1

B. subtilis (+) = assay: Antibacterial MIC test (CLSI); type: cell-based; settings: MHB liquid medium, 37° C., 24 hours
Method: as §1

E. coli (−) = assay: Antibacterial MIC test (CLSI); type: cell-based; settings: MHB liquid medium, 37° C., 24 hours
Method: as §1

L. monocytogenes (+) = assay: Antibacterial MIC test (CLSI); type: cell-based; settings: MHB liquid medium, 37° C., 24 hours
Method: as §1

M. luteus (+) = assay: Antibacterial MIC test (CLSI); type: cell-based; settings: MHB liquid medium, 37° C., 24 hours
Method: as §1

P. acnes (+) = assay: Antibacterial MIC test (CLSI); type: cell-based; settings: MHB liquid medium, 37° C., 24 hours
Method: as §1

S. aureus enterica (−) = assay: Antibacterial MIC test (CLSI); type: cell-based; settings: MHB liquid medium, 37° C., 24 hours
Method: as §1

S. aureus (+) = settings: MHB liquid medium, 37° C., 24 hours
Method: (§2) The antibacterial activities against Gram-positive bacteria, Gram-negative bacteria or multi-drug resistant bacteria were evaluated for the compounds of the present invention. The MIC test was conducted in accordance CLSI guidelines. E. coli(−), P. aeruginosa(−), and S. enterica(−) were used as Gram-negative bacteria, B. cereus(+), B. subtilis(+), B. coagulans(+), L. monocytogenes(+), M. luteus(+), P. acnes(+), S. epidermidis(+), and S. aureus(+) were used as Gram-positive bacteria. Methicillin-resistant Staphylococcus aureus (MRSA) was used as multi-drug resistant bacteria. The bacterial cells were incubated until the OD600 of the single colonies reached 0.1. […] Subsequently, bacterial cells were incubated at 37° C. for 24 hours, and then the MICs (μg/ ? ) were determined by visual reading and optical density detection at 600 nm (OD600). As a positive control, Nofloxacin and Vancomycin were used.

S. epidermidis (+) = settings: MHB liquid medium, 37° C., 24 hours
Method: as §2

MRSA = assay: Antibacterial MIC test (CLSI); type: cell-based, Methicillin-resistant Staphylococcus aureus; settings: MHB liquid medium, 37° C., 24 hours
Method: as §1

Structure (SMILES) | Relative IL-6 levels (%) (interleukin 6 (IL-6)) | MIC (μg/mL) C. neoformans (C. neoformans) | MIC (μg/mL) C. albicans (C. albicans) | MIC (μg/mL) C. glabrata (C. glabrata) | MIC (μg/mL) A. fumigatus (A. fumigatus) | MIC B. cereus (+) (B. cereus (+)) | MIC B. coagulans (+) (B. coagulans (+)) | MIC B. subtilis (+) (B. subtilis (+)) | MIC E. coli (−) (E. coli (−)) | MIC L. monocytogenes (+) (L. monocytogenes (+)) | MIC M. luteus (+) (M. luteus (+)) | MIC P. acnes (+) (P. acnes (+)) | MIC S. aureus enterica (−) (S. aureus enterica (−)) | MIC S. aureus (+) (S. aureus (+)) | MIC S. epidermidis (+) (S. epidermidis (+)) | MIC MRSA (MRSA)
CCCC(C(=O)Nc1ccc(-c2ccc(Cl)c(Cl)c2)cc1)N(C)C (racemic) [Compound 36, (R)/(S)-N-(3′,4′-dichloro-[1,1′-biphenyl]-4-yl)-2-(dimethylamino)pentanamide] | 9% | 2~8 μg/mL | 4~16 μg/mL | 4~16 μg/mL | 4~16 μg/mL | – | – | – | – | – | – | – | – | – | – | –
CCCC(N)C(=O)Nc1ccc(-c2ccc(OC(F)(F)F)cc2)cc1.Cl (racemic) [Compound 32, (R)/(S)-2-amino-N-(4′-(trifluoromethoxy)-[1,1′-biphenyl]-4-yl)pentanamide hydrochloride] | 16% | 2~8 μg/mL | 4~16 μg/mL | 4~16 μg/mL | 4~16 μg/mL | – | – | – | – | – | – | – | – | – | – | –
CCCC(N)C(=O)NCc1ccc(-c2ccc(C(F)(F)F)cc2)cc1.Cl (racemic) [Compound 47, (R)/(S)-2-amino-N-((4′-(trifluoromethyl)-[1,1′-biphenyl]-4-yl)methyl)pentanamide hydrochloride] | 12% | 4~16 μg/mL | 8~32 μg/mL | 8~32 μg/mL | 8~32 μg/mL | – | – | – | – | – | – | – | – | – | – | –
CCCCC(N)C(=O)NCc1ccc(-c2ccc(C(F)(F)F)cc2)cc1.Cl (racemic) [Compound 48, (R)/(S)-2-amino-N-((4′-(trifluoromethyl)-[1,1′-biphenyl]-4-yl)methyl)hexanamide hydrochloride] | 67% | 4~16 μg/mL | 4~16 μg/mL | 4~16 μg/mL | 4~16 μg/mL | – | – | – | – | – | – | – | – | – | – | –
CCCC(N)C(=O)NCc1ccc(-c2ccc(Cl)c(Cl)c2)cc1.Cl (racemic) [Compound 45, (R)/(S)-2-amino-N-((3′,4′-dichloro-[1,1′-biphenyl]-4-yl)methyl)pentanamide hydrochloride] | 3% | 2~8 μg/mL | 8~32 μg/mL | 8~32 μg/mL | 8~32 μg/mL | – | – | – | – | – | – | – | – | – | – | –
CCC(NC)C(=O)NCCc1ccc(-c2ccc(Cl)c(Cl)c2)cc1.Cl (racemic) [Compound 83, (R)/(S)-N-(2-(3′,4′-dichloro-[1,1′-biphenyl]-4-yl)ethyl)-2-(methylamino)butanamide hydrochloride] | 9% | 2~8 μg/mL | 8~32 μg/mL | 8~32 μg/mL | 8~32 μg/mL | – | – | – | – | – | – | – | – | – | – | –
CCCC(N)C(=O)NCCc1ccc(-c2ccc(OC(F)(F)F)cc2)cc1.Cl (racemic) [Compound 80, (R)/(S)-2-amino-N-(2-(4′-(trifluoromethoxy)-[1,1′-biphenyl]-4-yl)ethyl)pentanamide hydrochloride] | 6% | 2~8 μg/mL | 4~16 μg/mL | 4~16 μg/mL | 4~16 μg/mL | – | – | – | – | – | – | – | – | – | – | –
CCCC(C(=O)NCc1ccc(-c2ccc(Cl)c(Cl)c2)cc1)N(C)C (racemic) [Compound 53, (R)/(S)-N-((3′,4′-dichloro-[1,1′-biphenyl]-4-yl)methyl)-2-(dimethylamino)pentanamide] | 5% | 2~8 μg/mL | 8~32 μg/mL | 8~32 μg/mL | 8~32 μg/mL | – | – | – | – | – | – | – | – | – | – | –
CCCC(N)C(=O)NCCc1ccc(-c2ccc(F)c(F)c2)cc1.Cl (racemic) [Compound 82, (R)/(S)-2-amino-N-(2-(3′,4′-difluoro-[1,1′-biphenyl]-4-yl)ethyl)pentanamide hydrochloride] | 3% | 4~16 μg/mL | 4~16 μg/mL | 4~16 μg/mL | 4~16 μg/mL | – | – | – | – | – | – | – | – | – | – | –
CCCC(N)C(=O)NCc1ccc(-c2ccc(OC(F)(F)F)cc2)cc1.Cl (racemic) [Compound 49, (R)/(S)-2-amino-N-((4′-(trifluoromethoxy)-[1,1′-biphenyl]-4-yl)methyl)pentanamide hydrochloride] | 50% | 4~16 μg/mL | 8~32 μg/mL | 8~32 μg/mL | 8~32 μg/mL | – | – | – | – | – | – | – | – | – | – | –
CCCC(NC)C(=O)NCc1ccc(-c2ccc(C(F)(F)F)cc2)cc1.Cl (racemic) [Compound 52, (R)/(S)-2-(methylamino)-N-((4′-(trifluoromethyl)-[1,1′-biphenyl]-4-yl)methyl)pentanamide hydrochloride] | 13% | 4~16 μg/mL | 8~32 μg/mL | 8~32 μg/mL | 8~32 μg/mL | – | – | – | – | – | – | – | – | – | – | –
CCCC(N)C(=O)NCCc1ccc(-c2ccc(C(F)(F)F)cc2)cc1.Cl (racemic) [Compound 77, (R)/(S)-2-amino-N-(2-(4′-(trifluoromethyl)-[1,1′-biphenyl]-4-yl)ethyl)pentanamide hydrochloride] | 5% | 4~16 μg/mL | 8~32 μg/mL | 8~32 μg/mL | 8~32 μg/mL | – | – | – | – | – | – | – | – | – | – | –
CCCC(NC)C(=O)NCCc1ccc(-c2ccc(C(F)(F)F)cc2)cc1.Cl (racemic) [Compound 87, (R)/(S)-2-(methylamino)-N-(2-(4′-(trifluoromethyl)-[1,1′-biphenyl]-4-yl)ethyl)pentanamide hydrochloride] | 24% | 4~16 μg/mL | 4~16 μg/mL | 4~16 μg/mL | 4~16 μg/mL | – | – | – | – | – | – | – | – | – | – | –
CCC(N)C(=O)Nc1ccc(-c2ccc(Cl)c(Cl)c2)cc1.Cl (racemic) [Compound 29, (R)/(S)-2-amino-N-(3′,4′-dichloro-[1,1′-biphenyl]-4-yl)butanamide hydrochloride] | – | 2~8 μg/mL | 4~16 μg/mL | 4~16 μg/mL | 4~16 μg/mL | 8 µg/mL | <4 µg/mL | <4 µg/mL | 8 µg/mL | <4 µg/mL | <4 µg/mL | <4 µg/mL | 8 µg/mL | <4 µg/mL | <4 µg/mL | <4 µg/mL
CCCCC(N)C(=O)NCCc1ccc(-c2ccc(C(F)(F)F)cc2)cc1.Cl (racemic) [Compound 78, (R)/(S)-2-amino-N-(2-(4′-(trifluoromethyl)-[1,1′-biphenyl]-4-yl)ethyl)hexanamide hydrochloride] | – | 2~8 μg/mL | 4~16 μg/mL | 4~16 μg/mL | 4~16 μg/mL | 16 µg/mL | <4 µg/mL | <4 µg/mL | 8 µg/mL | <4 µg/mL | 8 µg/mL | >64 µg/mL | 16 µg/mL | 8 µg/mL | 8 µg/mL | 8 µg/mL

Reference: US12180139B2, “Method for preparing aminoalkanoic acid derivative containing biphenyl group” (AMTIXBIO CO., LTD., priority 2019, dated 2024)
